From patent US10130633B2, “Compounds” (BAYER PHARMA AKTIENGESELLSCHAFT, priority 2013, dated 2018)

Experiments:
[1] = system: constitutive active colorectal cancer cell (CRC) Wnt pathway; assay: HCT116 TOPFlash cellular reporter assay (Super TopFlash luciferase), constitutive active Wnt pathway; format: cell-based; conditions: HCT116 TOP reporter cells, 36 hours incubation, luciferase expression
Protocol: In order to discover and characterize small molecules which inhibit the constitutive active colorectal cancer cell (CRC) Wnt pathway, a cellular reporter assay was employed. […] Stable transfectants were generated by cotransfection with pcDNA3 and selection of stable transfected cells with 1 mg/ml G418.

[2] = system: HCT116 FOP control reporter cell line; assay: HCT116 FOPFlash control reporter assay (FOP control vector, non-functional TCF elements); format: cell-based; conditions: HCT116 FOP control reporter cells, 36 hours incubation, luciferase expression
Description: In a parallel approach, HCT116 cells were cotransfected with the FOP control vector and pcDNA3. The FOP vector is identical to the TOP construct, but it contains instead of functional TCF elements a randomized, non-functional sequence. For this transfection a stable transfected cell line was generated as well.

| SMILES | IC50 ([1]; Homo sapiens, HCT-116, 36 h) [nM] | IC50 ([2]; Homo sapiens, HCT-116, 36 h) [nM] | IC50 [1] [nM] | IC50 [2] [nM] |
| --- | --- | --- | --- | --- |
| CN1CCN(CC(=O)Nc2cc(C(=O)Nc3nnc(-c4ccccc4)s3)ccc2C(F)(F)F)CC1 [Example 59, 3-{[(4-methylpiperazin-1-yl)acetyl]amino}-N-(5-phenyl-1,3,4-thiadiazol-2-yl)-4-(trifluoromethyl)benzamide] | 385 | ≥ 50000 | – | – |
| COc1ccc(NC(=O)c2ccc(-c3ccccc3F)nc2)cc1NC(=O)CN1CCOCC1 [Example 31, 6-(2-fluorophenyl)-N-{4-methoxy-3-[(morpholin-4-ylacetyl)amino]phenyl}nicotinamide] | 805 | 36000 | – | – |
| CN1CCN(CC(=O)Nc2cc(C(=O)Nc3nnc(-c4cccc(F)c4)s3)ccc2OC(F)(F)F)CC1 [Example 152, N-[5-(3-fluorophenyl)-1,3,4-thiadiazol-2-yl]-3-{[(4-methylpiperazin-1-yl)acetyl]amino}-4-(trifluoromethoxy)benzamide] | 200 | ≥ 50000 | – | – |
| CC(C(=O)Nc1cc(NC(=O)c2ccc(-c3cccc(F)c3)nc2)ccc1OC(F)(F)F)N1CC2CCC(C1)O2 (centres unmarked) [Example 188, 6-(3-fluorophenyl)-N-[3-{[2-(8-oxa-3-azabicyclo[3.2.1]oct-3-yl)propanoyl]amino}-4-(trifluoromethoxy)phenyl] nicotinamide] | – | – | 120 | 5500 |
| CC(C(=O)Nc1cc(C(=O)Nc2ccc(-c3cc(F)cc(F)c3)nc2)ccc1OC(F)(F)F)N1C[C@@H]2C[C@H]1CO2 (relative stereo) [Example 180, N-[6-(3,5-difluorophenyl)pyridin-3-yl]-3-({(2R*)-2-[(1S,4S)-2-oxa-5-azabicyclo[2.2.1]hept-5-yl]propanoyl}amino)-4-(trifluoromethoxy)benzamide] | – | – | 148 | 9800 |
| O=C(CN1CCOCC1)Nc1cc(C(=O)Nc2nnc(-c3ccccc3)o2)ccc1OC(F)(F)F [Example 191, 3-[(morpholin-4-ylacetyl)amino]-N-(5-phenyl-1,3,4-oxadiazol-2-yl)-4-(trifluoromethoxy)benzamide] | 4100 | ≥ 50000 | – | – |
| CC(C(=O)Nc1cc(NC(=O)c2ccc(-c3cc(F)cc(F)c3)nc2)ccc1OC(F)(F)F)N1CCOCC1 (centres unmarked) [Example 187, 6-(3,5-difluorophenyl)-N-[3-{[2-(morpholin-4-yl)propanoyl]amino}-4-(trifluoromethoxy)phenyl] nicotinamide] | 175 | – | – | 42000 |
| CN1CCN(C2(C(=O)Nc3cc(C(=O)Nc4nnc(-c5ccccc5)s4)ccc3OC(F)F)CC2)CC1 [Example 39, 4-(difluoromethoxy)-3-({[1-(4-methylpiperazin-1-yl)cyclopropyl]carbonyl}amino)-N-(5-phenyl-1,3,4-thiadiazol-2-yl)benzamide] | 33.8 | 32000 | – | – |
| CC(C(=O)Nc1cc(C(=O)Nc2nnc(-c3ccccc3)s2)ccc1CS(C)(=O)=O)N1CCOCC1 (centres unmarked) [Example 87, 4-[(methylsulfonyl)methyl]-3-{[2-(morpholin-4-yl)propanoyl]amino}-N-(5-phenyl-1,3,4-thiadiazol-2-yl)benzamide] | 858 | 48000 | – | – |
| COc1ccc(NC(=O)c2nnc(-c3ccccc3)s2)cc1NC(=O)CN1CCOCC1 [Example 130, N-{4-methoxy-3-[(morpholin-4-ylacetyl)amino]phenyl}-5-phenyl-1,3,4-thiadiazole-2-carboxamide] | 318 | ≥ 50000 | – | – |
| O=C(CN1CCOCC1)Nc1cc(C(=O)Nc2nnc(-c3cccc(Cl)c3)s2)ccc1OC(F)(F)F [Example 154, N-[5-(3-chlorophenyl)-1,3,4-thiadiazol-2-yl]-3-[(morpholin-4-ylacetyl)amino]-4-(trifluoromethoxy)benzamide] | 420 | ≥ 50000 | – | – |
| O=C(Nc1nnc(-c2ccc(F)cc2)s1)c1ccc(OC(F)(F)F)c(NC(=O)C2(N3CCOCC3)CC2)c1 [Example 90, N-[5-(4-fluorophenyl)-1,3,4-thiadiazol-2-yl]-3-({[1-(morpholin-4-yl)cyclopropyl]carbonyl}amino)-4-(trifluoromethoxy)benzamide] | 173 | ≥ 50000 | – | – |
| COc1ccc(C(=O)Nc2ccc(-c3ccccc3F)nc2)cc1NC(=O)CN1C[C@@H]2C[C@H]1CO2 [Example 3, N-[6-(2-fluorophenyl)pyridin-3-yl]-4-methoxy-3-{[(1S,4S)-2-oxa-5-azabicyclo[2.2.1]hept-5-ylacetyl]amino}benzamide] | 1800 | ≥ 50000 | – | – |
| CN1CCN(CC(=O)Nc2cc(C(=O)Nc3ccc(-c4ccccc4F)nc3)ccc2OC(F)(F)F)CC1 [Example 197, N-[6-(2-fluorophenyl)pyridin-3-yl]-3-{[(4-methylpiperazin-1-yl)acetyl]amino}-4-(trifluoromethoxy)benzamide] | 1200 | 34000 | – | – |
| CC(C(=O)Nc1cc(C(=O)Nc2ccc(-c3cc(F)cc(F)c3)nc2)ccc1OC(F)(F)F)N1CC2CCC(C1)O2 (centres unmarked) [Example 178, N-[6-(3,5-difluorophenyl)pyridin-3-yl]-3-{[2-(8-oxa-3-azabicyclo[3.2.1]oct-3-yl)propanoyl]amino}-4-(trifluoromethoxy)benzamide] | – | – | 42.4 | 3800 |
| CC(C(=O)Nc1cc(NC(=O)c2ccc(-c3ccccc3F)nc2)ccc1OC(F)(F)F)N1CC2CCC(C1)O2 (centres unmarked) [Example 205, 6-(2-fluorophenyl)-N-[3-{[2-(8-oxa-3-azabicyclo[3.2.1]oct-3-yl)propanoyl]amino}-4-(trifluoromethoxy)phenyl] nicotinamide] | – | – | 20.2 | 18200 |
| COc1ccc(NC(=O)c2ncc(-c3ccccc3)s2)cc1NC(=O)CN1CCOCC1 [Example 23, N-{4-methoxy-3-[(morpholin-4-ylacetyl)amino]phenyl}-5-phenyl-1,3-thiazole-2-carboxamide] | 98 | ≥ 50000 | – | – |
| O=C(CN1CCOCC1)Nc1cc(C(=O)Nc2ccc(-c3cc(F)cc(F)c3)nc2)ccc1OC(F)(F)F [Example 72, N-[6-(3,5-difluorophenyl)pyridin-3-yl]-3-[(morpholin-4-ylacetyl)amino]-4-(trifluoromethoxy)benzamide] | 106 | 8000 | – | – |
| CC(C(=O)Nc1cc(C(=O)Nc2ccc(-c3ccccc3F)nc2)ccc1OC(F)(F)F)N1CCN(C2CC2)CC1 (centres unmarked) [Example 196, 3-{[2-(4-cyclopropylpiperazin-1-yl)propanoyl]amino}-N-[6-(2-fluorophenyl)pyridin-3-yl]-4-(trifluoromethoxy)benzamide] | 143 | ≥ 50000 | – | – |

Next, values leading:

| IC50 ([1]; Homo sapiens, HCT-116, 36 h) [nM] | IC50 ([2]; Homo sapiens, HCT-116, 36 h) [nM] | IC50 [1] [nM] | IC50 [2] [nM] | SMILES |
| --- | --- | --- | --- | --- |
| 119 | ≥ 50000 | – | – | CN1CCN(CC(=O)Nc2cc(C(=O)Nc3nnc(-c4ccccc4)s3)ccc2OCC2CC2)CC1 [Example 259, 4-(cyclopropylmethoxy)-3-{[(4-methylpiperazin-1-yl)acetyl]amino}-N-(5-phenyl-1,3,4-thiadiazol-2-yl)benzamide] |
| 2870 | 29000 | – | – | CN(C(=O)CN1CCOCC1)c1cc(C(=O)Nc2ccc(-c3ccccc3)nc2)ccc1OC(F)(F)F [Example 228, 3-[methyl(morpholin-4-ylacetyl)amino]-N-(6-phenylpyridin-3-yl)-4-(trifluoromethoxy)benzamide] |
| 1380 | 3100 | – | – | O=C(Nc1ccc([N+](=O)[O-])cc1Cl)c1cc(Cl)ccc1O [Ref., niclosamide, reference compound] |
| – | – | 375 | 13000 | CC(C(=O)Nc1cc(NC(=O)c2ccc(-c3cccc(F)c3)nc2)ccc1OC(F)(F)F)N1CC2CCC(C1)O2 (centres unmarked) [Example 220, 6-(3-fluorophenyl)-N-[3-{[2-(8-oxa-3-azabicyclo[3.2.1]oct-3-yl)propanoyl]amino}-4-(trifluoromethoxy)phenyl] nicotinamide] |
| – | – | 245 | 3300 | CC(C(=O)Nc1cc(C(=O)Nc2ccc(-c3cc(F)cc(F)c3)nc2)ccc1OC(F)(F)F)N1CC2CCC(C1)O2 (centres unmarked) [Example 215, N-[6-(3,5-difluorophenyl)pyridin-3-yl]-3-{[2-(8-oxa-3-azabicyclo[3.2.1]oct-3-yl)propanoyl]amino}-4-(trifluoromethoxy)benzamide] |
| – | – | 7.85 | 5200 | CC(C(=O)Nc1cc(C(=O)Nc2ccc(-c3cc(F)cc(F)c3)nc2)ccc1OC(F)(F)F)N1CCOCC1 (centres unmarked) [Example 245, N-[6-(3,5-difluorophenyl)pyridin-3-yl]-3-{[2-(morpholin-4-yl)propanoyl]amino}-4-(trifluoromethoxy)benzamide] |
| – | – | 28 | 7700 | CC(C(=O)Nc1cc(C(=O)Nc2ccc(-c3cccc(F)c3)nc2)ccc1OC(F)(F)F)N1C[C@@H]2C[C@H]1CO2 (relative stereo) [Example 243, N-[6-(3-fluorophenyl)pyridin-3-yl]-3-({(2R*)-2-[(1S,4S)-2-oxa-5-azabicyclo[2.2.1]hept-5-yl]propanoyl}amino)-4-(trifluoromethoxy)benzamide] |
| 480 | ≥ 50000 | – | – | Cc1ccccc1-c1nnc(NC(=O)c2ccc(OC(F)(F)F)c(NC(=O)C3(N4CCN(C)CC4)CC3)c2)s1 [Example 271, N-[5-(2-methylphenyl)-1,3,4-thiadiazol-2-yl]-3-({[1-(4-methylpiperazin-1-yl)cyclopropyl]carbonyl}amino)-4-(trifluoromethoxy)benzamide] |
| – | – | 245 | ≥ 50000 | CC(C(=O)Nc1cc(NC(=O)c2ccc(-c3cc(F)cc(F)c3)nc2)ccc1OC(F)(F)F)N1CCOCC1 (centres unmarked) [Example 219, 6-(3,5-difluorophenyl)-N-[3-{[2-(morpholin-4-yl)propanoyl]amino}-4-(trifluoromethoxy)phenyl] nicotinamide] |
